Results published in patent publication US20170360875A1 (priority 2014, published 2017).
“And” between values parts separate entries of the source, which are not always exact repeats. Identical values can stand only once. Like-named read-outs stand apart in the source and are kept apart here. Ends that are not written are not given here.

Assays:
[1] = target: hepatitis C virus core protein (hepatitis C virus); assay: reverse ELISA; PAP IC without inhibitor on plate coated with 5 µg HCV core protein; average of three experiments
[2] = target: Influenza A/MAL/NY/6750/78 H2N2 virus; assay: reverse ELISA; PAP IC without inhibitor on plate coated with IAV 1:100
[3] = target: FcγIIa (R131 allele) (UniProt P12318)
[4] = target: FcγIIIb (NA2) (UniProt O75015); assay: reverse ELISA; PAP IC without inhibitor on plate coated with FcγIIIb (NA2)
[5] = target: FcγIIb (UniProt P31994); assay: reverse ELISA; PAP IC without inhibitor on plate coated with FcγIIb
[6] = target: recombinant Sudan Ebolavirus glycoprotein (IBT Bioservices, Catalogue Number 0501-015) (Sudan Ebolavirus)
[7] = target: hepatitis A virus; assay: reverse ELISA; PAP IC without inhibitor on plate coated with HAV 1:10; average of three experiments
[8] = target: Influenza A/MAL/NY/6750/78 H2N2 virus; assay: reverse ELISA; PAP IC without inhibitor on plate coated with IAV 1:10
[9] = target: FcγI (UniProt P12314); assay: reverse ELISA; PAP IC without inhibitor on plate coated with FcγI
[10] = target: human C1q (Quidel Corp.) (human) (UniProt P02745); assay: reverse ELISA; PAP IC without inhibitor on C1q-coated plate
[11] = target: FcγIIb (UniProt P31994); assay: reverse ELISA; PAP IC without inhibitor on plate coated with FcγIIb/c
[12] = target: FcγIIa (H131 allele) (UniProt P12318)
[13] = target: FcγIIIa (UniProt P08637); assay: reverse ELISA; PAP IC without inhibitor on plate coated with FcγIIIa
[14] = target: hepatitis A virus; assay: reverse ELISA; PAP IC without inhibitor on plate coated with HAV 1:100; average of three experiments
[15] = target: Influenza A/MAL/NY/6750/78 H2N2 virus; assay: reverse ELISA control; HRP without antibody on plate coated with IAV 1:100
[16] = target: hepatitis C virus core protein (hepatitis C virus); assay: reverse ELISA control; HRP without antibody on plate coated with 5 µg HCV core protein
[17] = target: hepatitis A virus; assay: reverse ELISA control; HRP without antibody on plate coated with HAV 1:100
[18] = target: Influenza A/MAL/NY/6750/78 H2N2 virus; assay: reverse ELISA control; HRP without antibody on plate coated with IAV 1:10
[19] = target: hepatitis A virus; assay: reverse ELISA control; HRP without antibody on plate coated with HAV 1:10
[20] = test system: FcγIIb; format: binding
[21] = test system: C1q; format: binding, human
[22] = test system: FcγIIIa; format: binding
[23] = test system: FcγIIIb (NA2); format: binding
[24] = test system: FcγIIa (H131 allele); format: binding, human
[25] = test system: FcγI; format: binding
[26] = test system: Influenza A/MAL/NY/6750/78 H2N2 virus; conditions: for Percent Inhibition, 1:10 IAV / Percent Inhibition, 1:100 IAV: /MAL/NY/6750/78 H2N2 virus
[27] = test system: hepatitis A virus; format: binding; conditions: for 1:10 HAV (OD 405 nm): 1:10 virus dilution, IC alone 0.997; for 1:100 HAV (OD 405 nm): 1:100 virus dilution, IC alone 0.953
[28] = test system: Sudan Ebolavirus Glycoprotein (GP); format: binding
[29] = test system: FcγIIb/c; format: binding
[30] = test system: hepatitis C virus core protein; format: binding; conditions: NB406 10 mg/mL
[31] = test system: Sudan Ebolavirus (SEBOV)
[32] = NB406 10 mg/mL, average of three experiments

Chain of UniProt P31994 (P31994 46-217 limits assumed): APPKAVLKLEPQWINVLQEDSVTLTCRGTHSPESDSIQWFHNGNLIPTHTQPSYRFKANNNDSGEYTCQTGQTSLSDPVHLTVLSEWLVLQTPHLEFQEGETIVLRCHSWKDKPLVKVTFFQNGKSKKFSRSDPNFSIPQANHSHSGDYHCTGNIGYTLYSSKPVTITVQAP
Chain of UniProt O75015 (O75015 17-200 N65S): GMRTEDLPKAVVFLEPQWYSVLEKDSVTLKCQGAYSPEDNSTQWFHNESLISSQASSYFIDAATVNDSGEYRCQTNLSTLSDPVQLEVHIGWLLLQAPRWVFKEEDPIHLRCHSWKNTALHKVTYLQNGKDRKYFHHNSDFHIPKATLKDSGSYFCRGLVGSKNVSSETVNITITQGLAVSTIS
Chain of UniProt P08637 (P08637 17-208): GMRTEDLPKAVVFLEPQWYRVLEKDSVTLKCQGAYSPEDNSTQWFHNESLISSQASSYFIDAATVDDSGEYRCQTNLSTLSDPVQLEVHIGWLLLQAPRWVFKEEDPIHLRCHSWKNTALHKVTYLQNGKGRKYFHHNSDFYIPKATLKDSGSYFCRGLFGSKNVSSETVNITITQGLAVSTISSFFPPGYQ
Chain of UniProt P12314 (P12314 16-288 limits assumed): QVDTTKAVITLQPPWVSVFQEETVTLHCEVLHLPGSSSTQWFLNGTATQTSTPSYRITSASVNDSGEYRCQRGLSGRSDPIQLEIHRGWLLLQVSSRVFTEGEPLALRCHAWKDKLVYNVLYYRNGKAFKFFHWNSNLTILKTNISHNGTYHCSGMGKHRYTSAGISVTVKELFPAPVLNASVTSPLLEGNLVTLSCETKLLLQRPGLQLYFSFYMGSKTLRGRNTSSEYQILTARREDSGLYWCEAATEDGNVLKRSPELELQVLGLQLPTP
Chain of UniProt P02745 (P02745 23-245 limits assumed, chain 1 of 3): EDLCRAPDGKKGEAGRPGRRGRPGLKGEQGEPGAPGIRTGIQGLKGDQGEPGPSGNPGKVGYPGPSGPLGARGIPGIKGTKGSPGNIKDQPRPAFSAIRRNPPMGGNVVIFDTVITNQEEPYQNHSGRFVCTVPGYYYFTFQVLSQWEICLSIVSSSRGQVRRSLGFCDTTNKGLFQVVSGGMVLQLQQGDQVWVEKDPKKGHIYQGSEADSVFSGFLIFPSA
Chain of UniProt P02745 (P02746 28-253 limits assumed, chain 2 of 3, further chain): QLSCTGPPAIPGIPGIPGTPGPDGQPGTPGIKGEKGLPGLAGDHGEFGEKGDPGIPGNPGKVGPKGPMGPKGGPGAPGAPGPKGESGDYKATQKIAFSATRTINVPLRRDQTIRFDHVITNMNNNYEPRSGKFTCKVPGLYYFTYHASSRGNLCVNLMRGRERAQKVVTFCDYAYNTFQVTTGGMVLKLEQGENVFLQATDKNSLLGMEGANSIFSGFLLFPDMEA
Chain of UniProt P02745 (P02747 29-245 limits assumed, chain 3 of 3, further chain): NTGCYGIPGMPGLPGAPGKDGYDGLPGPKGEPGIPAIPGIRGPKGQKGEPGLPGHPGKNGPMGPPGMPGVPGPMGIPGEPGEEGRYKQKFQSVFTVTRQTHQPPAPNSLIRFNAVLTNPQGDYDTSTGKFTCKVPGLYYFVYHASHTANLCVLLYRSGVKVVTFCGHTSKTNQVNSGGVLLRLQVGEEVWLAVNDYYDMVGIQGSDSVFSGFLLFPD

## preformed immune complex of peroxidase-rabbit anti-peroxidase IgG (PAP complex) (from UniProt P00433 31-338)
[1]
  OD 405 nm: 2.75 OD 405 nm
[2]
  OD 405 nm: 1.87 OD 405 nm
[3]
  OD405: 1.6 OD405
[4]
  OD 405 nm: 3.06 OD 405 nm
[5]
  OD405: 1.39 OD405
[6]
  OD 405 nm: 1.61 OD 405 nm and 1.38 OD 405 nm and 1.31 OD 405 nm
[7]
  OD 405 nm: 0.997 OD 405 nm
[8]
  OD 405 nm: 1.94 OD 405 nm
[9]
  OD 405 nm: 2.33 OD 405 nm
[10]
  OD 405 nm: 2.35 OD 405 nm
[11]
  OD 405 nm: 2.22 OD 405 nm
[12]
  OD 405 nm: 3.51 OD 405 nm
[13]
  OD405: 1.59 OD405
[14]
  OD 405 nm: 0.953 OD 405 nm

## horseradish peroxidase (HRP), Sigma-Aldrich P6782 (from UniProt P00433 31-338) (enzyme)
[15]
  OD 405 nm: 0.178 OD 405 nm
[16]
  OD 405 nm: 0.172 OD 405 nm
[17]
  OD 405 nm: 0.138 OD 405 nm
[18]
  OD 405 nm: 0.163 OD 405 nm
[19]
  OD 405 nm: 0.117 OD 405 nm

## APPCAWHLGELVWCT (cysteine pairing not given here) [SEQ ID NO:14]
[20]
  OD405 FcγIIb: 0.562
[21]
  OD 405 nm: 1.148
[22]
  OD405 FcγIIIa: 0.530

## APPCAFHLGELVWCT (cysteine pairing not given here) [SEQ ID NO:18]
[20]
  OD405 FcγIIb: 0.380
[21]
  OD 405 nm: 0.983
[22]
  OD405 FcγIIIa: 0.880

## APPCARHLGELVWCT (cysteine pairing not given here) [SEQ ID NO:16]
[20]
  OD405 FcγIIb: 0.768
[21]
  OD 405 nm: 0.567
  inhibition of C1q binding (rank in words): next best result
[22]
  OD405 FcγIIIa: 0.709

## Asp-Cys-Ala-Trp-His-Leu-Gly-Glu-Leu-Val-Trp-Cys-Thr [SEQ ID NO:2]
[20]
  OD405 FcγIIb: 0.532
[21]
  OD 405 nm: 1.100
[22]
  OD405 FcγIIIa: 0.741

## CC(C)C[C@@H]1NC(=O)[C@H](Cc2c[nH]cn2)NC(=O)[C@H](Cc2c[nH]c3ccccc23)NC(=O)[C@H](C)NC(=O)[C@@H](NC(=O)[C@H](CC(=O)O)NC(=O)[C@@H]2CCCN2C(=O)[C@@H]2CCCN2C(=O)[C@H](C)N)CSSC[C@@H](C(=O)N[C@H](C(=O)O)[C@@H](C)O)NC(=O)[C@H](Cc2c[nH]c3ccccc23)NC(=O)[C@H](C(C)C)NC(=O)[C@H](CC(C)C)NC(=O)[C@H](CCC(=O)O)NC(=O)CNC1=O [SEQ ID NO:20]
[23]
  % inhibition of IC binding, FcγIIIb (NA2): 91%
  FcγIIIb (NA2) (read at 405 nm): 0.266
[24]
  % inhibition of IC binding, FcγIIa* (H131 allele): 94%
  FcγIIa* (H131 allele) (read at 405 nm): 0.209
  inhibited binding of FcγRIIa to immune complexed IgG Fc: more than 70%
[25]
  % inhibition of IC binding, FcγI: 89%
  FcγI (read at 405 nm): 0.264
[20]
  OD405 FcγIIb: 0.496
[26]
  prevention of binding of IC to the influenza virus (in words): can effectively prevent the binding of IC to the influenza virus
[26]; 0.37 mg/mL
  Percent Inhibition, 1:10 IAV: 63.5%
  Percent Inhibition, 1:100 IAV: 61.6%
[26]; 1.11 mg/mL
  Percent Inhibition, 1:10 IAV: 89.5%
  Percent Inhibition, 1:100 IAV: 88.7%
[26]; 3.33 mg/mL
  Percent Inhibition, 1:10 IAV: 96.6%
  Percent Inhibition, 1:100 IAV: 96.0%
[26]; 10 mg/mL
  Percent Inhibition, 1:10 IAV: 97.6%
  Percent Inhibition, 1:100 IAV: 97.0%
[27]; NB406 1.11 mg/mL
  1:10 HAV (OD 405 nm): 0.762
  1:100 HAV (OD 405 nm): 0.774
[27]; NB406 3.33 mg/mL
  1:10 HAV (OD 405 nm): 0.305
  1:100 HAV (OD 405 nm): 0.155
[27]; [32]
  1:10 HAV (OD 405 nm): 0.050
  1:100 HAV (OD 405 nm): 0.055
[27]; conclusion from Table 5
  prevention of binding of IC to the hepatitis A virus (in words): can effectively prevent the binding of IC to the hepatitis A virus
[28]
  1 ug/mL GP (OD read at 405 nm): 0.042 and 0.053 and 0.071
  3 ug/mL GP (OD read at 405 nm): 0.042 and 0.046 and 0.081
  Percent Inhibition, 1 ug/mL GP: 96.8% and 96.0% and 94.6%
  Percent Inhibition, 3 ug/mL GP: 96.9% and 96.7% and 94.1%
  Percent Inhibition, 10 ug/mL GP: 97.1% and 96.4% and 94.1%
  prevention of binding of IC to the Ebolavirus glycoprotein (in words): can effectively prevent the binding of IC to the Ebolavirus glycoprotein
[21]
  OD 405 nm: 0.389
  inhibition of C1q binding (rank in words): greatest inhibition of C1q binding
[29]
  % inhibition of IC binding, FcγIIb/c: 88%
  FcγIIb/c (read at 405 nm): 0.266
  inhibited binding of FcγRIIb to immune complexed IgG Fc: more than 70%
[30]
  Percent Inhibition, 5 μg HCV Core Protein: 89.7%
[30]; IC alone 2.752, average of three experiments
  5 μg HCV Core Protein (OD 405 nm): 0.283
[22]
  OD405 FcγIIIa: 0.670
[31]
  prevention of binding of IC to the Ebola virus (in words): can effectively prevent the binding of IC to the Ebola virus
[31]; 1 mg/mL
  Percent Inhibition, 1:100 SEV: 77.6%
  Percent Inhibition, 1:1000 SEV: 64.8%
  Percent Inhibition, 1:10000 SEV: 58.6%
[31]; 3 mg/mL
  Percent Inhibition, 1:100 SEV: 95.1%
  Percent Inhibition, 1:1000 SEV: 94.6%
  Percent Inhibition, 1:10000 SEV: 94.6%
[31]; 10 mg/mL
  Percent Inhibition, 1:100 SEV: 96.6%
  Percent Inhibition, 1:1000 SEV: 96.3%
  Percent Inhibition, 1:10000 SEV: 96.3%

## Asp-Cys-Ala-Phe-His-Leu-Gly-Glu-Leu-Val-Trp-Cys-Thr [SEQ ID NO:3]
[20]
  OD405 FcγIIb: 0.510
[21]
  OD 405 nm: 0.859
[22]
  OD405 FcγIIIa: 0.810
